{"source": "patent US9663486B2", "about": "“Selectively substituted quinoline compounds” (EISAI R&D MANAGEMENT CO., LTD., priority 2013, dated 2017)", "key": {"Human TLR7/8": {"tested_on": "Human TLR7/8", "assay": "Human PBMC cell-based assay, TLR7/8 (RNA-Ig), cytokine ELISA", "settings": "PBMC assay data summary; ligand and analyte not given; read-out: Human PBMCs IC50", "method": "Human peripheral blood mononuclear cells (PBMC) were isolated from freshly-drawn heparinized (10 USP units/ml, Hospira, Lakeforest, Ill.) healthy donor whole blood by density gradient (Histopaque® 1077, Sigma, Inc., St. Louis, Mo.). Briefly, 25 ml blood was diluted with 15 ml PBS (without Ca^2+, Mg^2+) in a 50 ml conical tube, and 12 ml Histopaque was underlaid using a spinal needle. Tubes were centrifuged for 45 minutes at 1200 rpm (350×g), and PBMC were collected from the buffy coat. Cells were then washed twice in PBS, and red blood cells were lysed by suspension in 5 ml ammonium chloride solution (1× Red Blood Cell Lysis Buffer, eBioscience) for 5 minutes at room temperature. After a final wash in PBS, PBMC were resuspended at a final concentration of 2×10^6/ml in RPMI-1640 media with L-glutamine (Invitrogen) and supplemented with 25 mM HEPES (Mediatech, Inc, Manassas Va.), 10% fetal bovine serum (HyClone, Logan, Utah), and Penicillin-Streptomycin-Glutamine (Mediatech) and plated at 100 ul/well (2×10^5 cells/well) in tissue culture treated 96-well plates (Falcon).\nAntagonist compounds solubilized and serial diluted in 100% DMSO were added in triplicate to cells to yield a final concentration of 0.1% DMSO (v/v). Hydroxychloroquine (Acros Organics) solubilized and serial diluted in PBS was added in triplicate to cells. PBMC were incubated with antagonist compounds or HCQ for 30 minutes at 37° C., 5% CO2 before adding various TLR agonist reagents in 100 ul complete media per well as follows (final concentrations indicated): R848 (Resiquimod; GLSynthesis, Worcester, Mass.) at 1 uM for TLR7 and TLR8, Pam3CSK4 (InvivoGen) at 50 ng/ml for TLR1/2, LPS (Sigma) at 10 ng/ml for TLR4, and CpG-2216 (InvivoGen) at 5 ug/ml for TLR9. […] The resulting “RNA-Ig” stimulus was incubated at room temperature for 15-30 minutes before adding to cells. PBMC were incubated with the various TLR agonists for 20 hours at 37° C., 5% CO2. Cell culture supernatants were collected, and levels of various human cytokines were assessed as indicated by standard ELISA procedure according to the manufacturer's recommended protocol (BD Biosciences, Inc., San Diego, Calif.)."}, "human TLR8": {"biological_target": "T1, human TLR8 (Homo sapiens, UniProt Q9NR97)", "T1 construct": "host or cells: HEK-293 stably expressing hTLR8, then transfected with pNiFty2(NF-kappaB)-luciferase", "T1 sequence (Q9NR97 27-1041)": "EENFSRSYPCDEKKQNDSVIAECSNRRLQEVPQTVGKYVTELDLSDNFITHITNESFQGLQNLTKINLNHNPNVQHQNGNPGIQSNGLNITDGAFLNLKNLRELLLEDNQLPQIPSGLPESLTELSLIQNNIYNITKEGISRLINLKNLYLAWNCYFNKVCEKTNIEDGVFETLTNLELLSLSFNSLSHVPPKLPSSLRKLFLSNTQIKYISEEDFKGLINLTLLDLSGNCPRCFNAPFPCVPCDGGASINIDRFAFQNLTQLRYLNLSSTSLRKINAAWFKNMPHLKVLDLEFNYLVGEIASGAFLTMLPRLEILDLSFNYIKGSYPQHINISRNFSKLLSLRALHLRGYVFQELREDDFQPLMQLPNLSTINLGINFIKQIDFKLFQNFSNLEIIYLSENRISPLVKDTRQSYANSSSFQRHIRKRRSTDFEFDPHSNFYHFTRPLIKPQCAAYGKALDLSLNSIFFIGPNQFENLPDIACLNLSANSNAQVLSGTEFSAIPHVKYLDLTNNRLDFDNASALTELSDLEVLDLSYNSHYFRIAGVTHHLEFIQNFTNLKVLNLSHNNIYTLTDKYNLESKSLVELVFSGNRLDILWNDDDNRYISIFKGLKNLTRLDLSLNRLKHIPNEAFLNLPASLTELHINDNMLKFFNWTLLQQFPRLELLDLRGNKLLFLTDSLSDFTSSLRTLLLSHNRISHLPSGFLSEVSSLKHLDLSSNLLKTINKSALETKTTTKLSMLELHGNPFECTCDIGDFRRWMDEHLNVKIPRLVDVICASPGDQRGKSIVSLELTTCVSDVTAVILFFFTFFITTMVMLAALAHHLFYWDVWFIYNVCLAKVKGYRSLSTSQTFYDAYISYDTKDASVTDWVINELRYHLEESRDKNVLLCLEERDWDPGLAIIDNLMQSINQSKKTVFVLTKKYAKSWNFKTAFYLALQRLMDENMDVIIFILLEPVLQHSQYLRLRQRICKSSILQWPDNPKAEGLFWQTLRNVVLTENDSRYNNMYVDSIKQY", "assay": "HEK-293 assay format, human TLR8 (CL097)", "assay_type": "cell-based", "settings": "read-out: HEK/hTLR8 IC50", "source_text": "HEK-293 cells (ATCC) were engineered to stably express a NF-kappaB transcription factor inducible E-selectin (ELAM-1) luciferase reporter derived from the plasmid pGL3 (Promega) containing base pairs −2241 bp to −254 bp from the promoter of the human E-selectin gene (Accession No. NM_000450). These cells were then subsequently engineered to stably and individually express human TLR4, TLR7 or TLR9 full-length ORF cDNAs. Human TLR4 cDNA (Accession No. NM_138554) was cloned into pcDNA 3.0 expression vector (Invitrogen). TLR4 transfected cells were also engineered to express human MD-2 co-receptor [MD-2 cDNA (Accession No. NM_015364) was cloned into the pEF-BOS vector] and were supplemented with 10 nM soluble CD14 (R&D Systems) in the media to optimize LPS responsiveness. Human TLR9 cDNA (Accession No. NM_017442) was cloned into the pBluescript II KS vector (Agilent). Human TLR7 cDNA (Accession No. NM_016562) was obtained from OriGene. HEK-293 cells stably expressing human TLR8 (Accession No. NM_138636) or mouse TLR7 (Accession No. NM_133211) were purchased from InvivoGen and were then stably transfected with pNiFty2(NF-kappaB)-luciferase reporter plasmid (InvivoGen). Each cell type was plated in Dulbecco's modified Eagle's medium (DMEM) containing 10% fetal bovine serum (FBS) at a density of 2.22×10^5 cells/ml into a 384-well plate and incubated for 2 days at 37° C., 5% CO2. […]"}}, "data": [{"smiles": "N#Cc1ccc(N2CCC[C@@H](N)C2)c2cccnc12", "note": "[ER-878921]", "values": [{"measurement": "IC50", "setting": "Human TLR7/8", "result": 90, "unit": "nM"}, {"measurement": "IC50", "setting": "human TLR8", "result": 74, "unit": "nM"}]}]}
